Assays:
[1] = test system: rabbits; settings: 0.15 mg/ml eye drops 2 times per day for approximately 60 days
Description: Treatment using 0.15 mg/ml copper sulfate pentahydrate in an ophthalmic vehicle is administered at approximately 6 weeks of age to rabbits. Eyedrops are administered 2 times per day for approximately 60 days. Refractive error is measured by an ophthalmologist prior to treatment on day 1 and at subsequent time-points (e.g., 14 days, 27 days, 44 days, and 62 days after the beginning of treatment) depicted in FIG. 3. […] Stable refractive errors are typically obtained after 15 minutes when there is no pupil response. FIG. 3 presents refractive error measurements for the test subjects in each eye.

[2] = test system: LNL crosslinks in rabbit cornea; settings: rabbits; 0.15 mg/ml eye drops twice a day for 6 weeks; LC-MS
Description: After six weeks each group of corneas is dissected, weighed and used for LNL analysis. Samples are reduced with NaBH4 at room temperature then washed twice with water, dried, and hydrolyzed with 6N
HCl in vacuo for 18 hours at 110° C. […] The hydrolysates are dried to evaporate HCL, reconstituted with H2O, and re-dried to remove residual HCl. Post hydrolysis, cross-link enrichment is carried out using a cellulose mini-column method. Samples are then provided for LNL analysis by mass spectroscopy (LC/MS).
To perform liquid chromatography/mass spectroscopy (LC/MS), 1 μL of 100 μg/mL d9-Lysine is added to all samples as an internal standard. A calibration curve is created using serial dilution. Semi-quantitative mass spectral analysis is performed using a Sciex 6500 Q-Trap (Sciex, Farmington, MA). A helicon iHILIC-Fusion 2.1×100 mm column (Umeå, Sweden) is used for chromatography using 10 mM NH4OAc (Buffer A) and ACN (Buffer B). LC/MS is performed in the positive mode with a TurboIon source using optimized source conditions. Quantitative data analysis is conducted using Sciex MultiQuant software.

[3] = test system: guinea pigs; experiment: Refractive error by streak retinoscopy in guinea pigs, 60-day atropine eye drop treatment; assay type: in vivo; settings: .001% eye drops 2 times per day for approximately 60 days
Description: Treatment using .001% atropine sulfate monohydrate eye drops is administered at approximately 1 week of age to guinea pigs. The eye drops are administered 2 times per day for approximately 60 days. Refractive error is measured by an ophthalmologist prior to treatment on day 1 and at subsequent time-points (e.g., 14 days, 27 days, 44 days, and 62 days after the beginning of treatment) depicted in FIGS. 1A-1C. […] Stable refractive errors are typically obtained after 15 minutes when there is no pupil response.

[4] = test system: cornea; settings: rabbits
Source text: The Ocular Response Analyzer (ORA; Reichert, Inc, Buffalo, N.Y.) is a commercially available noncontact tonometer that also assesses the viscoelastic nature of the cornea with bidirectional detection of applanation events to allow in vivo measurements of corneal biomechanical response parameters under air puff loading 42. The system includes an infrared emitter and detector aligned such that applanation produces a spike on the detector with a mirror like reflection from the flattened corneal surface.
Two applanation pressure measurements are reported by the ORA: one while the cornea moves inward, reaching first applanation, at pressure P1, and the other after the cornea recovers from a slight concavity as it moves outward passing through a second applanation at pressure P2. Therefore, these two values, P1 and P2, indicate the pressures associated with a flattened cornea during the loading and unloading cycle, with P2<P1 for a valid measurement. The difference between P1 and P2 is termed corneal hysteresis (CH).
A greater value for Peak 1 or Peak 2 indicates a larger area of applanation which is associated with a stiffer response. Thus, for the current study the
ORA pressure and applanation signals were analyzed using custom software to determine the magnitudes of Peak 1 and Peak 2. ORA measurements were assessed at baseline and every week for 6-8 weeks on the same set of rabbits described in 2.4.b which included 4 groups Sol A, Sol B, and vehicle and no drops. An increase in Peak 1 and Peak 2 can be present after stiffening; therefore, one-tailed t-tests were used for statistical analysis to compare groups.
The times at 3, 4, 5, and 6 weeks for the combined AB (treatment Sol A and treatment Sol B) treatment group were averaged for comparison against no therapy and vehicle. Peak 1 and Peak 2 were compared to both controls.

O.O.O.O.O.O=S(=O)([O-])[O-].[Cu+2] [copper sulfate pentahydrate]
Reduction of myopic progression in the treatment eye compared to control [1]: approximately 63% | LNL crosslinks in treated rabbit cornea compared to control (no treatment) and vehicle group [2]: significant increases

CN1[C@@H]2CC[C@H]1CC(OC(=O)C(CO)c1ccccc1)C2.CN1[C@@H]2CC[C@H]1CC(OC(=O)C(CO)c1ccccc1)C2.O.O=S(=O)(O)O (some centres unmarked) [Atropine, atropine sulfate monohydrate]
Progression of myopia (refractive error) [3]: Slows Progression of Myopia

O=S(=O)([O-])[O-].[Cu+2] [Copper sulfate]
Corneal stiffening in vivo as measured by waveform response to air puff deformation ([4]; ORA): generates stiffening in vivo | Peak 1, treated group AB versus no therapy ([4]; weeks 3, 4, 5 and 6 averaged, combined Sol A and Sol B, one-tailed t-test p=0.0244): significantly greater than no therapy | Peak 2, treated group AB versus vehicle ([4]; weeks 3, 4, 5 and 6 averaged, combined Sol A and Sol B, p<0.0001): significantly greater | Peak 2, treated group AB versus no therapy ([4]; weeks 3, 4, 5 and 6 averaged, combined Sol A and Sol B, p=0.0098): significantly greater than no therapy | Peak 1, treated group AB versus vehicle ([4]; weeks 3, 4, 5 and 6 averaged, combined Sol A and Sol B, p=0.0763): no substantial difference

Reference: patent publication US20220288114A1, “MULTI-AGENT OCULAR FORMULATIONS AND TREATMENT METHODS” (University of Utah Research Foundation, priority 2019, published 2022)
